# Measured values reported in PubChem BioAssay AID2060483 (Molecular Pharmacology Branch, DTP, NCI, 2025).
# Tested on: K24384-001-R-PDC complex spheroids, viability
# Assay: Anticancer human tumor K24384-001-R-PDC patient-derived pancreatic adenocarcinoma cell line growth inhibition [GQUAD]
# Details: for IC50: curve of first compound; for viability, T/C: stronger effect = lower value
# Procedure, shortened: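 Multi-cell-type spheroids of tumor cells with HUVEC and mesenchymal stem cells, treated with drug combinations. Concentrations descend in half-log steps from near clinical Cmax, or from 10 microM where Cmax is unknown; viability read-out.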
# [1] = second compound 0.0316 µM, first compound 0.0316 µM
# [2] = second compound 0.0316 µM, first compound 0.316 µM
# [3] = second compound 0.1 µM, first compound 0.0316 µM
# [4] = second compound 0.1 µM, first compound 0.316 µM
# [5] = second compound 0.316 µM, first compound 0.0316 µM
# [6] = second compound 0.316 µM, first compound 0.316 µM
# [7] = second compound 1 µM, first compound 0.0316 µM
# [8] = second compound 1 µM, first compound 0.316 µM
# [9] = second compound 3.16 µM, first compound 0.0316 µM
# [10] = second compound 3.16 µM, first compound 0.316 µM
# [11] = second compound 10 µM, first compound 0.0316 µM
# [12] = second compound 10 µM, first compound 0.316 µM
# 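Further: spheroids exposed to compounds for seven days.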
smiles,measurement,setting,value
Cc1[nH]c2ccccc2c1CCNCc1ccc(/C=C/C(=O)NO)cc1 + Cc1[nH]c2ccc(F)cc2c1-c1nc2c3cccnc3c3ncccc3c2[nH]1,IC50,second compound 0.0316 µM,139 nM
same,IC50,second compound 0.1 µM,138 nM
same,IC50,second compound 0.316 µM,121 nM
same,IC50,second compound 1 µM,124 nM
same,IC50,second compound 3.16 µM,128 nM
same,IC50,second compound 10 µM,134 nM
same,"viability, T/C","second compound 0.0316 µM, first compound 0.000999 µM",103%
same,"viability, T/C","second compound 0.0316 µM, first compound 0.00316 µM",111%
same,"viability, T/C","second compound 0.0316 µM, first compound 0.00999 µM",119%
same,"viability, T/C",[1],103%
same,"viability, T/C","second compound 0.0316 µM, first compound 0.0999 µM",67.9%
same,"viability, T/C",[2],5.6%
same,"viability, T/C","second compound 0.1 µM, first compound 0.000999 µM",99.1%
same,"viability, T/C","second compound 0.1 µM, first compound 0.00316 µM",95.2%
same,"viability, T/C","second compound 0.1 µM, first compound 0.00999 µM",98.7%
same,"viability, T/C",[3],99.6%
same,"viability, T/C","second compound 0.1 µM, first compound 0.0999 µM",66.7%
same,"viability, T/C",[4],7.11%
same,"viability, T/C","second compound 0.316 µM, first compound 0.000999 µM",95%
same,"viability, T/C","second compound 0.316 µM, first compound 0.00316 µM",92.9%
same,"viability, T/C","second compound 0.316 µM, first compound 0.00999 µM",101%
same,"viability, T/C",[5],103%
same,"viability, T/C","second compound 0.316 µM, first compound 0.0999 µM",58.6%
same,"viability, T/C",[6],5.93%
same,"viability, T/C","second compound 1 µM, first compound 0.000999 µM",91.3%
same,"viability, T/C","second compound 1 µM, first compound 0.00316 µM",91.8%
same,"viability, T/C","second compound 1 µM, first compound 0.00999 µM",124%
same,"viability, T/C",[7],118%
same,"viability, T/C","second compound 1 µM, first compound 0.0999 µM",60.1%
same,"viability, T/C",[8],7.14%
same,"viability, T/C","second compound 3.16 µM, first compound 0.000999 µM",81.3%
same,"viability, T/C","second compound 3.16 µM, first compound 0.00316 µM",87.7%
same,"viability, T/C","second compound 3.16 µM, first compound 0.00999 µM",77.3%
same,"viability, T/C",[9],94.4%
same,"viability, T/C","second compound 3.16 µM, first compound 0.0999 µM",61.1%
same,"viability, T/C",[10],8.67%
same,"viability, T/C","second compound 10 µM, first compound 0.000999 µM",77.2%
same,"viability, T/C","second compound 10 µM, first compound 0.00316 µM",72.9%
same,"viability, T/C","second compound 10 µM, first compound 0.00999 µM",77.2%
same,"viability, T/C",[11],118%
same,"viability, T/C","second compound 10 µM, first compound 0.0999 µM",65.4%
same,"viability, T/C",[12],5.58%
O=C(NO)c1cnc(N2CCN(S(=O)(=O)c3ccc4ccccc4c3)CC2)nc1 + Cc1[nH]c2ccc(F)cc2c1-c1nc2c3cccnc3c3ncccc3c2[nH]1,IC50,second compound 0.0316 µM,618 nM
same,IC50,second compound 0.1 µM,671 nM
same,IC50,second compound 0.316 µM,787 nM
same,IC50,second compound 1 µM,1050 nM
same,IC50,second compound 3.16 µM,871 nM
same,IC50,second compound 10 µM,858 nM
same,"viability, T/C",[1],109%
same,"viability, T/C","second compound 0.0316 µM, first compound 0.1 µM",105%
same,"viability, T/C",[2],87.7%
same,"viability, T/C","second compound 0.0316 µM, first compound 1 µM",23.1%
same,"viability, T/C","second compound 0.0316 µM, first compound 3.16 µM",0.14%
same,"viability, T/C","second compound 0.0316 µM, first compound 10 µM",0.17%
same,"viability, T/C",[3],96.6%
same,"viability, T/C","second compound 0.1 µM, first compound 0.1 µM",103%
same,"viability, T/C",[4],79.2%
same,"viability, T/C","second compound 0.1 µM, first compound 1 µM",35%
same,"viability, T/C","second compound 0.1 µM, first compound 3.16 µM",0.16%
same,"viability, T/C","second compound 0.1 µM, first compound 10 µM",0.15%
same,"viability, T/C",[5],102%
same,"viability, T/C","second compound 0.316 µM, first compound 0.1 µM",94.5%
same,"viability, T/C",[6],88.4%
same,"viability, T/C","second compound 0.316 µM, first compound 1 µM",40.5%
same,"viability, T/C","second compound 0.316 µM, first compound 3.16 µM",0.1%
same,"viability, T/C","second compound 0.316 µM, first compound 10 µM",0.12%
same,"viability, T/C",[7],105%
same,"viability, T/C","second compound 1 µM, first compound 0.1 µM",107%
same,"viability, T/C",[8],101%
same,"viability, T/C","second compound 1 µM, first compound 1 µM",52.3%
same,"viability, T/C","second compound 1 µM, first compound 3.16 µM",0.16%
same,"viability, T/C","second compound 1 µM, first compound 10 µM",0.12%
same,"viability, T/C",[9],75.6%
same,"viability, T/C","second compound 3.16 µM, first compound 0.1 µM",110%
same,"viability, T/C",[10],88.7%
same,"viability, T/C","second compound 3.16 µM, first compound 1 µM",44.7%
same,"viability, T/C","second compound 3.16 µM, first compound 3.16 µM",0.18%
same,"viability, T/C","second compound 3.16 µM, first compound 10 µM",0.14%
same,"viability, T/C",[11],71.5%
same,"viability, T/C","second compound 10 µM, first compound 0.1 µM",95.8%
same,"viability, T/C",[12],82.7%
same,"viability, T/C","second compound 10 µM, first compound 1 µM",44.9%
same,"viability, T/C","second compound 10 µM, first compound 3.16 µM",0.22%
same,"viability, T/C","second compound 10 µM, first compound 10 µM",0.17%
